# Test results from the supplement of paper PMC10307832.
# Tests used:
# Test in all cases: relative viability (nuclei count vs DMSO), 5 days (fraction); higher = more cells survive
# SK-MES-1 = test system: SK-MES-1
# Procedure, shortened: (§1)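 Relative viability divides the nuclei count in treated wells by that in vehicle wells. Lung cancer cell lines were seeded in 1536-well plates, dosed by pin tool the next day, and fixed and stained after 5 days in one step with final 0.05% Triton X-100, 1% formaldehyde and 1 ug/ml Hoechst. Dosing was a single drug or a fixed anchor-drug dose plus five library-drug doses (not always all listed) in √10 steps, and values are medians of duplicate plates imaged at 4×.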
# ABC-1 = test system: ABC-1
# Procedure, shortened: as §1
# COR-L23 = test system: COR-L23
# Procedure, shortened: as §1
# HCC-827 = test system: HCC-827
# Procedure, shortened: as §1
# LC-2-ad = test system: LC-2-ad
# Procedure, shortened: as §1
# HCC-366 = test system: HCC-366
# Procedure, shortened: as §1
# UMC-11 = test system: UMC-11
# Procedure, shortened: as §1
# NCI-H1975 = test system: NCI-H1975
# Procedure, shortened: as §1
# NCI-H661 = test system: NCI-H661
# Procedure, shortened: as §1
# NCI-H2085 = test system: NCI-H2085
# Procedure, shortened: as §1
# HCC-15 = test system: HCC-15
# Procedure, shortened: as §1
# PC-14 = test system: PC-14
# Procedure, shortened: as §1
# NCI-H2009 = test system: NCI-H2009
# Procedure, shortened: as §1
# NCI-H2228 = test system: NCI-H2228
# Procedure, shortened: as §1
# NCI-H1666 = test system: NCI-H1666
# Procedure, shortened: as §1
# NCI-H2087 = test system: NCI-H2087
# Procedure, shortened: as §1
# LCLC-103H = test system: LCLC-103H
# Procedure, shortened: as §1
# H3255 = test system: H3255
# Procedure, shortened: as §1
# NCI-H1437 = test system: NCI-H1437
# Procedure, shortened: as §1
# LXF-289 = test system: LXF-289
# Procedure, shortened: as §1
# NCI-H2342 = test system: NCI-H2342
# Procedure, shortened: as §1
# PC-3 [JPC-3] = test system: PC-3 [JPC-3]
# Procedure, shortened: as §1
# NCI-H23 = test system: NCI-H23
# Procedure, shortened: as §1
compound,measurement,setting,value
Cc1cn(-c2cc(NC(=O)c3ccc(C)c(Nc4nccc(-c5cccnc5)n4)c3)cc(C(F)(F)F)c2)cn1 [Nilotinib] + O=C(CCCCCCC(=O)Nc1ccccc1)NO [Vorinostat] (partner 1 µM),relative viability,SK-MES-1; first compound 0.001 µM,1.12
same,relative viability,SK-MES-1; first compound 0.003162 µM,0.623
same,relative viability,SK-MES-1; first compound 0.01 µM,1.33
same,relative viability,SK-MES-1; first compound 0.03162 µM,0.936
same,relative viability,SK-MES-1; first compound 0.1 µM,0.618
same,relative viability,ABC-1; first compound 0.001 µM,1.07
same,relative viability,ABC-1; first compound 0.003162 µM,1.03
same,relative viability,ABC-1; first compound 0.01 µM,1.11
same,relative viability,ABC-1; first compound 0.03162 µM,1.1
same,relative viability,ABC-1; first compound 0.1 µM,0.754
same,relative viability,COR-L23; first compound 0.001 µM,0.317
same,relative viability,COR-L23; first compound 0.003162 µM,0.347
same,relative viability,COR-L23; first compound 0.01 µM,0.406
same,relative viability,COR-L23; first compound 0.03162 µM,0.373
same,relative viability,COR-L23; first compound 0.1 µM,0.392
same,relative viability,HCC-827; first compound 0.001 µM,0.835
same,relative viability,HCC-827; first compound 0.003162 µM,0.983
same,relative viability,HCC-827; first compound 0.03162 µM,0.857
same,relative viability,HCC-827; first compound 0.1 µM,0.822
same,relative viability,LC-2-ad; first compound 0.001 µM,0.644
same,relative viability,LC-2-ad; first compound 0.003162 µM,0.851
same,relative viability,LC-2-ad; first compound 0.01 µM,0.772
same,relative viability,LC-2-ad; first compound 0.03162 µM,0.545
same,relative viability,LC-2-ad; first compound 0.1 µM,0.318
same,relative viability,HCC-366; first compound 0.001 µM,0.33
same,relative viability,HCC-366; first compound 0.003162 µM,0.361
same,relative viability,HCC-366; first compound 0.01 µM,0.364
same,relative viability,HCC-366; first compound 0.03162 µM,0.27
same,relative viability,HCC-366; first compound 0.1 µM,0.212
same,relative viability,UMC-11; first compound 0.001 µM,0.359
same,relative viability,UMC-11; first compound 0.003162 µM,0.398
same,relative viability,UMC-11; first compound 0.01 µM,0.346
same,relative viability,UMC-11; first compound 0.03162 µM,0.336
same,relative viability,UMC-11; first compound 0.1 µM,0.458
same,relative viability,NCI-H1975; first compound 0.001 µM,0.598
same,relative viability,NCI-H1975; first compound 0.003162 µM,0.742
same,relative viability,NCI-H1975; first compound 0.01 µM,0.702
same,relative viability,NCI-H1975; first compound 0.03162 µM,0.489
same,relative viability,NCI-H1975; first compound 0.1 µM,0.643
same,relative viability,NCI-H661; first compound 0.001 µM,0.792
same,relative viability,NCI-H661; first compound 0.003162 µM,0.889
same,relative viability,NCI-H661; first compound 0.01 µM,0.875
same,relative viability,NCI-H661; first compound 0.03162 µM,0.642
same,relative viability,NCI-H661; first compound 0.1 µM,0.615
same,relative viability,NCI-H2085; first compound 0.001 µM,0.833
same,relative viability,NCI-H2085; first compound 0.003162 µM,0.776
same,relative viability,NCI-H2085; first compound 0.01 µM,0.784
same,relative viability,NCI-H2085; first compound 0.03162 µM,0.753
same,relative viability,NCI-H2085; first compound 0.1 µM,0.598
same,relative viability,HCC-15; first compound 0.001 µM,0.791
same,relative viability,HCC-15; first compound 0.003162 µM,0.913
same,relative viability,HCC-15; first compound 0.01 µM,0.936
same,relative viability,HCC-15; first compound 0.03162 µM,0.616
same,relative viability,HCC-15; first compound 0.1 µM,0.761
same,relative viability,PC-14; first compound 0.001 µM,0.594
same,relative viability,PC-14; first compound 0.003162 µM,0.378
same,relative viability,PC-14; first compound 0.01 µM,0.756
same,relative viability,PC-14; first compound 0.03162 µM,0.604
same,relative viability,PC-14; first compound 0.1 µM,0.156
same,relative viability,NCI-H2009; first compound 0.001 µM,0.607
same,relative viability,NCI-H2009; first compound 0.003162 µM,0.755
same,relative viability,NCI-H2009; first compound 0.01 µM,0.743
same,relative viability,NCI-H2009; first compound 0.03162 µM,0.579
same,relative viability,NCI-H2009; first compound 0.1 µM,0.46
same,relative viability,NCI-H2228; first compound 0.001 µM,0.659
same,relative viability,NCI-H2228; first compound 0.003162 µM,0.616
same,relative viability,NCI-H2228; first compound 0.01 µM,0.594
same,relative viability,NCI-H2228; first compound 0.03162 µM,0.501
same,relative viability,NCI-H2228; first compound 0.1 µM,0.588
same,relative viability,NCI-H1666; first compound 0.001 µM,0.942
same,relative viability,NCI-H1666; first compound 0.003162 µM,1.11
same,relative viability,NCI-H1666; first compound 0.01 µM,1.17
same,relative viability,NCI-H1666; first compound 0.03162 µM,1.11
same,relative viability,NCI-H1666; first compound 0.1 µM,1.17
same,relative viability,NCI-H2087; first compound 0.001 µM,0.707
same,relative viability,NCI-H2087; first compound 0.003162 µM,0.709
same,relative viability,NCI-H2087; first compound 0.01 µM,1.23
same,relative viability,NCI-H2087; first compound 0.03162 µM,0.567
same,relative viability,NCI-H2087; first compound 0.1 µM,0.543
same,relative viability,LCLC-103H; first compound 0.001 µM,0.74
same,relative viability,LCLC-103H; first compound 0.003162 µM,0.823
same,relative viability,LCLC-103H; first compound 0.01 µM,0.858
same,relative viability,LCLC-103H; first compound 0.03162 µM,0.691
same,relative viability,LCLC-103H; first compound 0.1 µM,0.433
same,relative viability,H3255; first compound 0.001 µM,0.743
same,relative viability,H3255; first compound 0.003162 µM,0.706
same,relative viability,H3255; first compound 0.03162 µM,0.764
same,relative viability,H3255; first compound 0.1 µM,0.429
same,relative viability,NCI-H1437; first compound 0.001 µM,0.664
same,relative viability,NCI-H1437; first compound 0.003162 µM,0.97
same,relative viability,NCI-H1437; first compound 0.01 µM,0.878
same,relative viability,NCI-H1437; first compound 0.03162 µM,0.506
same,relative viability,NCI-H1437; first compound 0.1 µM,0.583
same,relative viability,LXF-289; first compound 0.001 µM,0.693
same,relative viability,LXF-289; first compound 0.003162 µM,0.994
same,relative viability,LXF-289; first compound 0.01 µM,0.882
same,relative viability,LXF-289; first compound 0.03162 µM,0.869
same,relative viability,LXF-289; first compound 0.1 µM,0.534
same,relative viability,NCI-H2342; first compound 0.001 µM,0.675
same,relative viability,NCI-H2342; first compound 0.003162 µM,0.685
same,relative viability,NCI-H2342; first compound 0.01 µM,0.668
same,relative viability,NCI-H2342; first compound 0.03162 µM,0.681
same,relative viability,NCI-H2342; first compound 0.1 µM,0.655
same,relative viability,PC-3 [JPC-3]; first compound 0.001 µM,0.792
same,relative viability,PC-3 [JPC-3]; first compound 0.01 µM,0.668
same,relative viability,PC-3 [JPC-3]; first compound 0.03162 µM,0.691
same,relative viability,PC-3 [JPC-3]; first compound 0.1 µM,0.53
same,relative viability,NCI-H23; first compound 0.001 µM,0.48
same,relative viability,NCI-H23; first compound 0.003162 µM,0.438
same,relative viability,NCI-H23; first compound 0.01 µM,0.685
same,relative viability,NCI-H23; first compound 0.03162 µM,0.239
same,relative viability,NCI-H23; first compound 0.1 µM,0.546
